Like-named read-outs stand apart in the source and are kept apart here.
Columns and labels:
[1] = target: T1, 5HT2B receptors (Homo sapiens, UniProt P41595); assay: Human 5-HT2B functional high throughput screening assay in CHO-K1 cells (calcium flux); format: cell-based; details: for EC50: CHO-K1 cells, calcium flux
T1 construct: expressed in transfected cells; host or cells: CHO-K1 cells
How it was run: (§1)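 Agonism was measured as FLIPR fluorescence increase (480/530 nm, 25° C) with Ca4 dye and 2.5 mM probenecid, in serum-starved CHO-K1 lines overexpressing human 5-HT2C or 5-HT2B. Six-point 1:10 dilutions from 10 μM (0.2% DMSO final) were fitted by 4-parameter logistics. Responses were normalised to serotonin to give EC50 and % Emax.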

[2] = target: T2, 5HT2C receptors (Homo sapiens, UniProt P28335); assay: Human 5-HT2C functional high throughput screening assay in CHO-K1 cells (calcium flux); format: cell-based; design: expressed in transfected cells; host or cells: CHO-K1 cells; details: for EC50: CHO-K1 cells, calcium flux; for Emax: CHO-K1, 5-HT2C, maximum functional response as percentage relative to the effect of serotonin
T2 sequence (P28335 33-458): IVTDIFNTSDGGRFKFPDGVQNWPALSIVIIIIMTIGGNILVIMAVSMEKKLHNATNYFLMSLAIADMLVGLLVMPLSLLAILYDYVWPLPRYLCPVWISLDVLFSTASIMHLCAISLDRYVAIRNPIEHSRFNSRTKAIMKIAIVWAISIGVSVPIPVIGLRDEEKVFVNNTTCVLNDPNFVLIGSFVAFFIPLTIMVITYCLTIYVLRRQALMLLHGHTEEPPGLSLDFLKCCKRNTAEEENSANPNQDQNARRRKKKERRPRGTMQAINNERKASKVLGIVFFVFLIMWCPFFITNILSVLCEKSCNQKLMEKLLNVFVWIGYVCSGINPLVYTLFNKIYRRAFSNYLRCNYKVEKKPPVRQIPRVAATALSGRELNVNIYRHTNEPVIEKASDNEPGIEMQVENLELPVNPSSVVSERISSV
How it was run: as §1

[3] = 5-HT2B agonist activity, read-out: EC50
[4] = 5-HT2B, maximum functional response as percentage relative to the effect of serotonin
[5] = 5-HT2C agonist activity, read-out: EC50

T1 sequence (P41595 whole entry): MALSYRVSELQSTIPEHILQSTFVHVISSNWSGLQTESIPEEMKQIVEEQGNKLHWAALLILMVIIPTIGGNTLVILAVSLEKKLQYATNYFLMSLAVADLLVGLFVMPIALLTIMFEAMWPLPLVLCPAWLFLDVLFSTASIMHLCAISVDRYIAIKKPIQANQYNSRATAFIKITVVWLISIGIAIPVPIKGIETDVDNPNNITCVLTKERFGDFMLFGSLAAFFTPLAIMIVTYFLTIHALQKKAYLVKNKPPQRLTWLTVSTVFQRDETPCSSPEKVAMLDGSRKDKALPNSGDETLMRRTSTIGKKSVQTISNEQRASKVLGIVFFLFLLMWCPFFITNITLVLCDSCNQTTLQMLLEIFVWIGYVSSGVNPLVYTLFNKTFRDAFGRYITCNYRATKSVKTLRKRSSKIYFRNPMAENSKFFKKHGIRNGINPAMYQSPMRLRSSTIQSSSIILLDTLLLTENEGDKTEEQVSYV

| Compound | EC50 [1, 3] | Emax [1, 4] | EC50 [2, 5] | Emax ([2]; read-out: Emax) | Emax ([1]; CHO-K1) | EC50 ([1]; EC50, 5-HT2B agonist activity) | Emax [2] | EC50 ([2]; EC50, 5-HT2C agonist activity) | Emax ([1]; CHO-K1, 5-HT2B, maximum functional response as percentage relative to the effect of serotonin, read-out: Emax) |
| --- | --- | --- | --- | --- | --- | --- | --- | --- | --- |
| COc1ccccc1-c1ccc2c(c1)C(=O)NC[C@@H]1CN(C)C[C@@H]21 (relative stereo) [Example 137, Trans-8-(2-methoxyphenyl)-2-methyl-1,2,3,3a,4,5-hexahydrobenzo[e]pyrrolo[3,4-c]azepin-6(10bH)-one] | > 10000 nM | inactive | 100 nM | > 120% |  |  |  |  |  |
| Brc1cccc2c1[C@H]1CNC[C@@H]1CCO2 (relative stereo) [Example 377, Trans-10-bromo-2,3,3a,4,5,10b-hexahydro-1H-[1]benzoxepino[4,5-c]pyrrole] |  |  |  |  | 30% | 30 nM | 100% | 200 nM |  |
| O=S(=O)(c1ccc(OC(F)F)cc1)N1Cc2cccnc2[C@@H]2CNC[C@H]2C1 (relative stereo) [Example 335, Trans-6-{[4-(difluoromethoxy)phenyl]sulfonyl}-5,6,7,7a,8,9,10,10a-octahydropyrido[3,2-e]pyrrolo[3,4-e]azepine] | 900 nM |  | 20 nM | 85% |  |  |  |  | 25% |
| C[C@@H](Oc1ccc2c(c1)C(=O)NC[C@@H]1CNC[C@@H]21)c1ccccc1 (mixture of isomers) [Example 150, Trans-8-((R)-1-phenylethoxy)-1,2,3,3a,4,5-hexahydrobenzo[e]pyrrolo[3,4-c]azepin-6(10bH)-one] |  | inactive |  |  |  | > 10000 nM | > 120% | 50 nM |  |
| CN1C[C@@H]2CNC(=O)c3cc(O)ccc3[C@H]2C1 [Example 200, (3aS,10bS)-8-Hydroxy-2-methyl-1,2,3,3a,4,5-hexahydrobenzo[e]pyrrolo[3,4-c]azepin-6(10bH)-one] | > 10000 nM | inactive | 500 nM |  |  |  | 55% |  |  |
| Clc1cccc2c1OCC[C@H]1CNC[C@H]21 (relative stereo) [Example 376, Trans-7-chloro-2,3,3a,4,5,10b-hexahydro-1H-[1]benzoxepino[4,5-c]pyrrole] |  |  |  |  | 70% | 200 nM | 90% | 0.2 nM |  |
| O=C1NC[C@@H]2CNC[C@H]2c2ccc(-c3cccc(CCO)c3)cc21 (relative stereo) [Example 252, Trans-8-(3-(2-hydroxyethyl)phenyl)-1,2,3,3a,4,5-hexahydrobenzo[c]pyrrolo[3,4-e]azepin-6(10bH)-one] | > 10000 nM | inactive | 0.4 nM | > 120% |  |  |  |  |  |
| CC(=O)c1ccc(-c2ccc3c(c2)C(=O)NC[C@@H]2CNC[C@@H]32)s1 (relative stereo) [Example 296, Trans-8-(5-acetyl-2-thienyl)-2,3,3a,4,5,10b-hexahydropyrrolo[3,4-d][2]benzazepin-6(1H)-one] | > 10000 nM | inactive | 1 nM | 100% |  |  |  |  |  |
| CN1C[C@@H]2CNC(=O)c3cc(OCc4ccc(F)c(F)c4)ccc3[C@H]2C1 [Example 210, (3aS,10bS)-8-(3,4-Difluorobenzyloxy)-2-methyl-1,2,3,3a,4,5-hexahydrobenzo[e]pyrrolo[3,4-c]azepin-6(10bH)-one] | > 10000 nM | inactive | 2 nM | > 120% |  |  |  |  |  |
| O=C1CCc2ccc(-c3ccc4c(c3)C(=O)NC[C@@H]3CNC[C@@H]43)cc21 (relative stereo) [Example 247, Trans-8-(3-oxo-2,3-dihydro-1H-inden-5-yl)-1,2,3,3a,4,5-hexahydrobenzo[c]pyrrolo[3,4-e]azepin-6(10bH)-one] | > 10000 nM | inactive | 8 nM | > 120% |  |  |  |  |  |
| Cc1ccc(S(=O)(=O)N2Cc3cccnc3[C@@H]3CNC[C@H]3C2)cc1 (relative stereo) [Example 356, Trans-6-[(4-methylphenyl)sulfonyl]-5,6,7,7a,8,9,10,10a-octahydropyrido[3,2-c]pyrrolo[3,4-e]azepine] |  |  |  |  | 15% | 1000 nM | 90% | 40 nM |  |
| CN1C[C@H]2CNC(=O)c3cc(-c4ccc(F)cc4F)ccc3[C@@H]2C1 (relative stereo) [Example 331, Trans-8-(2,4-difluorophenyl)-2-methyl-2,3,3a,4,5,10b-hexahydropyrrolo[3,4-d][2]benzazepin-6(1H)-one] | > 10000 nM | inactive | 200 nM | 95% |  |  |  |  |  |
| CC(C)CNc1ccc2c(c1)C(=O)NC[C@@H]1CN(C)C[C@@H]21 (relative stereo) [Example 297, Trans-8-(isobutylamino)-2-methyl-2,3,3a,4,5,10b-hexahydropyrrolo[3,4-d][2]benzazepin-6(1H)-one] |  | inactive |  |  |  | > 10000 nM | 80% | 100 nM |  |
| CCC(C)Oc1ccc2c(c1)C(=O)NC[C@@H]1CNC[C@@H]21 (relative stereo) [Example 165, Trans-8-sec-butoxy-1,2,3,3a,4,5-hexahydrobenzo[e]pyrrolo[3,4-c]azepin-6(10bH)-one] |  | inactive |  |  |  | > 10000 nM | > 120% | 80 nM |  |
| CN1CC[C@@H]2CNC[C@H]2c2ccccc21 (relative stereo) [Example 327, Trans-6-methyl-1,2,3,3a,4,5,6,10b-octahydropyrrolo[3,4-d][1]benzazepine] |  |  |  |  | 75% | 200 nM | 95% | 10 nM |  |
| c1ccc(CN2C[C@H]3CCOc4ncccc4[C@@H]3C2)cc1 (relative stereo) [Example 262, Trans-2-benzyl-2,3,3a,4,5,10b-hexahydro-1H-pyrrolo[3′,4′:4,5]oxepino[2,3-b]pyridine] | > 10000 nM | inactive | 2000 nM |  |  |  | 90% |  |  |
| CN1C[C@@H]2CNC(=O)c3cc(OCc4ccc(F)cc4)ccc3[C@H]2C1 [Example 211, (3aS,10bS)-8-(4-Fluorobenzyloxy)-2-methyl-1,2,3,3a,4,5-hexahydrobenzo[e]pyrrolo[3,4-c]azepin-6(10bH)-one] | > 10000 nM | inactive | 2 nM | > 120% |  |  |  |  |  |
| CC(C)COc1ccc2c(c1)C(=O)NC[C@@H]1CNC[C@@H]21 [Example 309, (3aS,10bR)-8-Isobutoxy-2,3,3a,4,5,10b-hexahydropyrrolo[3,4-d][2]benzazepin-6(1H)-one] |  | inactive |  |  |  | > 10000 nM | 70% |  |  |
| Brc1cccc2c1OCC[C@H]1CNC[C@H]21 (relative stereo) [Example 383, Trans-7-bromo-2,3,3a,4,5,10b-hexahydro-1H-[1]benzoxepino[4,5-c]pyrrole] |  |  |  |  | 100% | 6 nM | 105% | 0.04 nM |  |
| CNC(=O)c1ccc2c(c1)C(=O)NC[C@@H]1CN(C)C[C@@H]21 (relative stereo) [Example 125, Trans-N,2-dimethyl-6-oxo-1,2,3,3a,4,5,6,10b-octahydrobenzo[e]pyrrolo[3,4-c]azepine-8-carboxamide] | > 10000 nM | inactive | 2000 nM | 90% |  |  |  |  |  |
| c1ccc(-c2ccc3c(c2)OCC[C@H]2CNC[C@H]32)cc1 (relative stereo) [Example 108, Trans-8-phenyl-2,3,3a,4,5,10b-hexahydro-1H-[1]benzoxepino[4,5-c]pyrrole] | > 10000 nM | inactive | 200 nM | 110% |  |  |  |  |  |
| COc1ccc(-c2ccc3c(c2)C(=O)NC[C@@H]2CN(C)C[C@@H]32)c(OC)c1 (relative stereo) [Example 303, Trans-8-(2,4-dimethoxyphenyl)-2-methyl-2,3,3a,4,5,10b-hexahydropyrrolo[3,4-d][2]benzazepin-6(1H)-one] | > 10000 nM | inactive | 40 nM | 100% |  |  |  |  |  |
| COc1cccc(CCOc2ccc3c(c2)C(=O)NC[C@@H]2CNC[C@@H]32)c1 (relative stereo) [Example 174, Trans-8-(3-methoxyphenethoxy)-1,2,3,3a,4,5-hexahydrobenzo[e]pyrrolo[3,4-c]azepin-6(10bH)-one] | > 10000 nM | inactive | 30 nM | 110% |  |  |  |  |  |
| c1cnc2c(c1)C1CNCC1CCO2 (mixture of isomers) [Example 260, 2,3,3a,4,5,10b-Hexahydro-1H-pyrrolo[3′,4′:4,5]oxepino[2,3-b]pyridine] | 3000 nM |  | 1000 nM |  | 45% |  | > 120% |  |  |

Reference: US8846951B2 (AbbVie Inc., priority 2009, dated 2014)
